{"source": "paper PMC12424289", "about": "“Programmable Nanostructure Assembly of a Paclitaxel Derivative Enables Tunable Anticancer Therapy via Hydrogen Bond Engineering” (ACS Nano, 2025)", "key": {"human lung A549 cells": {"test_system": "human lung A549 cells", "assay": "CCK8 antiproliferation assay, A549", "type": "cell-based", "details": "A549, 48 h treatment", "method": "The mouse breast cancer cell line 4T1 and the human ovarian cancer cell line SKOV3 were cultured in RPMI 1640 medium supplemented with 10% fetal bovine serum, 100 units·mL^–1 penicillin, and 100 μg·mL^–1 streptomycin. The human lung cancer cell line A549 and the luciferase-expressing human colorectal carcinoma cell line HCT116-Luc were cultured in high-glucose DMEM medium supplemented with 10% fetal bovine serum, 100 units·mL^–1 penicillin, and 100 μg·mL^–1 streptomycin. All cell lines were maintained at 37 °C in a Steri-Cycle 371 incubator (Thermo Scientific, USA) with a humidified atmosphere of 5% CO2. Only cells between passages 5 and 15 were used for cell-based experiments.\nThe antiproliferative activity of PTP was evaluated using the Cell Counting Kit-8 (CCK8) assay. PTX solution served as a positive control. Cell suspensions were prepared at a density of 3 × 10^4 cells·mL^–1 and seeded in 96-well plates at a volume of 100 μL per well. The plates were incubated for 24 h to allow cell attachment and growth. Subsequently, the culture media were replaced with fresh media containing varying concentrations of PTX or PTP solutions (100 μL per well), and the cells were incubated for an additional 48 h (n = 3). Control wells received fresh culture media alone (n = 3). […] Finally, the absorbance was measured at 450 nm using a microplate reader (Synergy H1, BioTek, USA). […]"}, "[1]": {"assay": "Degradation of PTP assemblies in aqueous solution (HPLC)", "type": "physicochemical", "details": "37 °C", "method": "PTP, PTP@PEG, and PTP@HA (200 μL, 0.1 mg·mL^–1) solutions were sealed in ampules and incubated at 37 °C with agitation at 100 rpm. Samples were collected in triplicate at scheduled intervals, treated with acetonitrile, vortexed for 1 min, and analyzed using HPLC. Degradation rate constants (k) were calculated by plotting the natural logarithm of the concentration ratio (ln c/c0) versus time, with the slopes of the linear regression plots representing the rate constants."}, "[2]": {"assay": "Surface tension measurement / critical aggregation concentration", "type": "physicochemical", "method": "Surface tension measurements were conducted at 25 °C using a drop shape analyzer (DSA30S; Kruss, Germany). Starting with a 5.0 mg·mL^–1 PTP dispersion, serial dilutions were prepared to obtain a range of lower concentrations. Following overnight assembly, the PTP dispersion was drawn into a syringe (HENKE-JECT, Germany), and a droplet was suspended from the needle tip. The outer diameter of the needle (1.825 mm) served as the reference for image analysis. Images of the droplet were captured, and the surface tension was calculated using the Young–Laplace equation based on the droplet’s shape."}, "Stability in rat plasma": {"assay": "Stability in rat plasma", "type": "in vitro ADME", "method": "For plasma stability studies, a PTP or PTP@PEG dispersion (1.2 mg·mL^–1, PTP-equivalent) was diluted with plasma to a final concentration of 100.0 μg·mL^–1. Plasma was obtained from male rat blood by centrifugation (1600 × g, 15 min). Aliquots (100 μL each) were incubated at 37 °C with agitation at 100 rpm, and samples were collected at designated time points in triplicate. Proteins were precipitated by adding 200 μL acetonitrile, followed by vortex mixing and centrifugation at 17 000 rpm and 4 °C for 30 min. The resulting supernatants were analyzed by HPLC."}, "Balb/c mice": {"test_system": "Balb/c mice", "assay": "Maximum tolerated dose / survival in mice", "type": "in vivo, mouse", "details": "iv, PTP 100 mg·kg^–1, 14 days"}, "subcutaneous 4T1 tumors": {"test_system": "subcutaneous 4T1 tumors", "assay": "Antitumor efficacy and safety in subcutaneous 4T1 tumor model", "type": "in vivo", "details": "4T1 model, iv 10.0 mg·kg^–1 PTX equivalent, five doses", "method": "For pharmacodynamic evaluation, female Balb/c mice (18–22 g, n = 6 per group) bearing subcutaneous 4T1 tumors (approximately 50 mm^3) received intravenous injections every other day for five doses at 10.0 mg·kg^–1 (PTX equivalent). Tumor volume and body weight were monitored daily until day 14, when tumors were excised and photographed. At study termination (day 14), major organs (heart, liver, spleen, lungs, and kidneys) were collected from these mice. The organs were fixed in 4% paraformaldehyde, dehydrated with ethanol, and cleared with xylene. Afterward, the tissues were embedded in paraffin wax and sectioned after dipping wax operation at 60 °C. The sections were then stained with hematoxylin and eosin for histological examination."}, "[3]": {"assay": "Serum biochemistry safety assessment", "type": "in vivo, Balb/c mice", "details": "mice, iv 10 mg·kg^–1 PTX equivalent, q.o.d. × 5, day 10; PTP versus PTP@PEG", "method": "In a related safety assessment, female Balb/c mice (18–22 g, n = 3) were fasted for 12 h, then treated intravenously with either 5% G, PTX solution, PTP, or PTP@PEG using the previously described dosing regimen (10 mg·kg^–1 PTX equivalent, q.o.d. × 5). On day 10, blood was collected and then processed to obtain serum by centrifugation (2000 rpm, 10 min, 4 °C). Serum samples were subsequently analyzed for biochemical markers using a Chemray 240 automated analyzer (Rayto Life and Analytical Sciences Co., Ltd., China)."}}, "note": "pIC50: −log10 of the molar value."}
{"molecule": "CC(=O)O[C@H]1C(=O)[C@@]2(C)[C@H]([C@H](OC(=O)c3ccccc3)[C@]3(O)C[C@H](OC(=O)[C@H](OC(=O)CCP(=O)(O)O)[C@@H](NC(=O)c4ccccc4)c4ccccc4)C(C)=C1C3(C)C)[C@]1(OC(C)=O)CO[C@@H]1C[C@@H]2O", "note": "[PTP, PTX-2’–OOC-P]", "values": [{"measurement": "pIC50", "setting": "human lung A549 cells", "value": 7.88}, {"measurement": "degradation rate constant (k)", "setting": "[1]; 0.1 mg·mL^–1 in 5% glucose (5% G)", "value": "2.3 × 10^–2 day^–1"}, {"measurement": "degradation rate constant (k)", "setting": "[1]; 0.1 mg·mL^–1 in phosphate buffer saline (PBS)", "value": 1.3, "unit": "day^–1"}, {"measurement": "degradation rate constant (k)", "setting": "[1]; 0.1 mg·mL^–1 in saline", "value": "3.2 × 10^–2 day^–1"}, {"measurement": "degradation rate constant (k)", "setting": "[1]; 0.1 mg·mL^–1 in water", "value": "8.0 × 10^–2 day^–1"}, {"measurement": "water–air surface tension (plateau)", "setting": "[2]; above 1.0 mg·mL^–1", "value": "approximately 55.0 mN·m^–1"}, {"measurement": "critical aggregation concentration", "setting": "[2]; water, 25 °C, inflection of surface tension versus log concentration", "value": 0.6, "unit": "mg·mL^–1"}, {"measurement": "degradation faster than PTP@PEG", "setting": "Stability in rat plasma; rat plasma, 37 °C", "value": 1.2, "unit": "fold"}, {"measurement": "degradation rate constant (k) in plasma", "setting": "Stability in rat plasma; rat plasma, 37 °C, 100 μg·mL^–1 PTP-equivalent", "value": 0.23, "unit": "h^–1"}, {"measurement": "parent compound left", "setting": "Stability in rat plasma; rat plasma, 37 °C, after 10 h", "value": 10.4, "unit": "%"}, {"measurement": "degraded in plasma", "setting": "Stability in rat plasma; within 10 h, 100.0 μg·mL^–1", "value": "approximately 90%"}, {"measurement": "fatalities", "setting": "Balb/c mice", "value": "No fatalities"}, {"measurement": "safety: body weight and renal histology", "setting": "subcutaneous 4T1 tumors", "value": "renal inflammation"}, {"measurement": "blood urea nitrogen (BUN) and creatinine (CREA) levels", "setting": "[3]", "value": "comparable"}]}
